Data published in patent publication US7109338B2, “1,2-disubstituted 1,4-dihydro-4-oxoquinoline compounds” (priority 1999, dated 2006).
In brackets after ≈: the same amount, converted by molar mass.

Tests used:
[1] = system: HRV1A (E28); assay: Anti-rhinovirus activity (MTT), HRV1A; assay type: cell-based, human rhinovirus; conditions: for IC50: Human rhinovirus sp., HRV1A, HeLa, read-out: IC50 HRV 1A; for IC50 HRV 1A: HeLa (Ohio strain) cells, MTT method, 33° C.
[2] = system: HRV14 (1059); assay: Anti-rhinovirus activity (MTT), HRV14; assay type: cell-based, human rhinovirus; conditions: HeLa (Ohio strain) cells, MTT method, 33° C.; for IC50: Human rhinovirus sp., HRV14, read-out: IC50 HRV 14
[3] = system: HRV 2 (HGP); assay: Anti-rhinovirus activity (MTT), HRV2; assay type: cell-based, human rhinovirus; conditions: HeLa (Ohio strain) cells, MTT method, 33° C.; for IC50: Human rhinovirus sp., HRV2, read-out: IC50 HRV2
[4] = system: echovirus type 11 (Echo 11, Gregory); assay: In vitro anti-picornavirus activity (MTT), Echo 11; assay type: cell-based; conditions: HeLa-S3 cells, MTT method, 37° C.; for IC50: Enterovirus B
[5] = system: coxsackievirus type A7 (CA7); assay: In vitro anti-picornavirus activity (MTT), CA7; assay type: cell-based; conditions: HeLa-S3 cells, MTT method, 37° C.; for IC50: Coxsackievirus
[6] = system: human rhinovirus type 1B (HRV 1B, B632); assay: Anti-rhinovirus activity (MTT), HRV1B; assay type: cell-based; conditions: HeLa (Ohio strain) cells, MTT method, 33° C.; for IC50: Human rhinovirus sp., HRV1B, read-out: IC50 HRV1B
[7] = system: coxsackievirus type B4 (CB4,JVB); assay: In vitro anti-picornavirus activity (MTT), CB4; assay type: cell-based; conditions: HeLa cells, MTT method, 37° C.; for IC50: Coxsackievirus
[8] = system: Poliovirus type 1 (Polio 1, Sabin); assay: microbe, parasite or virus in culture; assay type: cell-based; conditions: for IC50: Enterovirus C, HeLa S3, read-out: IC50 Polio 1
[9] = system: HRV 89 (41617-Gallo); assay: Anti-rhinovirus activity (MTT), HRV89; assay type: cell-based, human rhinovirus; conditions: HeLa (Ohio strain) cells, MTT method, 33° C.; for IC50: Human rhinovirus sp., HRV89, read-out: IC50 HRV89
[10] = system: HeLa (Ohio strain)cells; assay: Cytotoxicity (MTT, without virus), HeLa(Ohio); conditions: HeLa(Ohio), no virus, incubated for 4 days
[11] = system: HeLa cells; assay: Cytotoxicity (MTT, without virus), HeLa; conditions: HeLa, no virus, incubated for 4 days
[12] = system: HeLa-S3 cells; assay: Cytotoxicity (MTT, without virus), HeLa-S3; conditions: HeLa-S3, no virus, incubated for 4 days

SMILES | melting point | IC50 HRV 1A [1] [µg/mL] | IC50 HRV 14 [2] [µg/mL] | IC50 HRV2 [3] [µg/mL] | IC50 Echo 11 [4] [µg/mL] | IC50 CA7 [5] [µg/mL] | IC50 HRV1B [6] [µg/mL] | IC50 CB4 [7] [µg/mL] | IC50 Polio 1 [8] [µg/mL] | IC50 HRV89 [9] [µg/mL] | other results
CCn1c2c(c(=O)c3cc(C(C)C)ccc31)C(C)c1ccccc1-2 (centres unmarked) [Compound C40, 5-Ethyl-8-isopropyl-11-methyl-5,10-dihydro-11H-indeno[1,2-b]quinolin-10-one] | 152 to 154 °C | – | – | – | – | – | – | – | – | – | IC50 [1]: > 3.3 µg/mL; IC50 [2]: 1.1 µg/mL (≈ 3.47 µM); IC50 [3]: 0.54 µg/mL (≈ 1.7 µM); IC50 [4]: 0.24 µg/mL (≈ 0.756 µM); IC50 [5]: > 3.3 µg/mL; IC50 [6]: 0.51 µg/mL (≈ 1.61 µM); IC50 [7]: 1.7 µg/mL (≈ 5.36 µM); IC50 [8]: 0.54 µg/mL (≈ 1.7 µM); IC50 [9]: 0.56 µg/mL (≈ 1.76 µM)
CCn1c2c(c(=O)c3cc(C(C)C)ccc31)C(OC)(c1ccccc1)c1ccccc1-2 (centres unmarked) | 237 to 239 °C | – | – | – | – | – | – | – | – | – | –
CCc1ccc2c(c1)Cc1c-2n(C)c2ccc(C(C)C)cc2c1=O [Compound B8] | – | >1 | 0.40 (≈ 1.26 µM) | 0.22 (≈ 0.693 µM) | 0.17 (≈ 0.536 µM) | 0.70 (≈ 2.21 µM) | 0.24 (≈ 0.756 µM) | 0.60 (≈ 1.89 µM) | 0.19 (≈ 0.599 µM) | 0.12 (≈ 0.378 µM) | Cytotoxicity CC50 HeLa(Ohio) [10]: >1 µg/mL; Cytotoxicity CC50 HeLa [11]: >1 µg/mL; Cytotoxicity CC50 HeLa-S3 [12]: >1 µg/mL
COc1ccc2c(c1)Cc1c-2n(C)c2ccc(CC(C)C)cc2c1=O [Compound B11] | – | 1.7 (≈ 5.1 µM) | 0.78 (≈ 2.34 µM) | 0.34 (≈ 1.02 µM) | 0.28 (≈ 0.84 µM) | >2 | 0.36 (≈ 1.08 µM) | 1.6 (≈ 4.8 µM) | 0.45 (≈ 1.35 µM) | 0.31 (≈ 0.93 µM) | Cytotoxicity CC50 HeLa(Ohio) [10]: >2 µg/mL; Cytotoxicity CC50 HeLa [11]: >2 µg/mL; Cytotoxicity CC50 HeLa-S3 [12]: >2 µg/mL
CCn1c2c(c(=O)c3cc(C(C)C)ccc31)C(O)c1ccccc1-2 (centres unmarked) [Compound C43, 5-Ethyl-8-isopropyl-11-hydroxy-5,10-dihydro-11H-indeno[1,2-b]quinolin-10-one] | – | – | – | – | – | – | – | – | – | – | IC50 [1]: > 5 µg/mL; IC50 [2]: 2.5 µg/mL (≈ 7.83 µM); IC50 [3]: 0.67 µg/mL (≈ 2.1 µM); IC50 [4]: 0.54 µg/mL (≈ 1.69 µM); IC50 [5]: > 5 µg/mL; IC50 [6]: 1.5 µg/mL (≈ 4.7 µM); IC50 [7]: 2.9 µg/mL (≈ 9.08 µM); IC50 [8]: 1.5 µg/mL (≈ 4.7 µM); IC50 [9]: 0.86 µg/mL (≈ 2.69 µM)
CCn1c2c(c(=O)c3cc(C(C)C)ccc31)C(N)c1ccccc1-2.Cl.Cl (centres unmarked) | 200 °C (dec.) | – | – | – | – | – | – | – | – | – | –
CCn1c2c(c(=O)c3cc(C(C)C)ccc31)C(NC(C)=O)c1ccccc1-2 (centres unmarked) | 215 °C (dec.) | – | – | – | – | – | – | – | – | – | –
CCOC(=O)c1c(-c2ccccc2)n(C)c2ccc(C(C)C)cc2c1=O | 164 to 165 °C | – | – | – | – | – | – | – | – | – | –
CCn1c2c(c(=O)c3cc(C(C)C)ccc31)C(=NOC)c1ccccc1-2 [Compound C49, 5-Ethyl-8-isoproypl-11-methoxyimino-5,10-dihydro-11H-indeno[1,2-b]quinolin-10-one] | – | >10 | 5.5 (≈ 15.9 µM) | 1.7 (≈ 4.91 µM) | 0.26 (≈ 0.751 µM) | 9.2 (≈ 26.6 µM) | 1.9 (≈ 5.48 µM) | 2.3 (≈ 6.64 µM) | 0.52 (≈ 1.5 µM) | 2.1 (≈ 6.06 µM) | –
